Values after ≈ are worked out from the molar mass of the structure shown. Read-outs that look alike come from different tables or passages of the source.
Tests used:
Assay type in all cases: cell-based
Helicobacter pylori (Hp) = assay: screening of antibacterial components of traditional Chinese drug, MIC against Hp; conditions: monomer alone
Excerpt: The combination of different monomer compositions can resist bacteria, increase the action target of the composition, be conducive to improve the antibacterial effect and reduce the drug resistance of the composition. Therefore, in the present disclosure, according to the quality ratio of Zuojin pills, berberine, evolitrine, and tanshinone I are combined according to a certain quality ratio to inhibit Hp. This combination can synergistically enhance the inhibition of Hp, and is not easy to produce drug resistance, which has an extremely excellent effect on the treatment of Hp infection related diseases.

Helicobacter pylori = assay: Chessboard method, synergistic inhibitory effect of two monomers (FIC); conditions: monomer used alone, 72 hours
Procedure: The compositions 1, 2, 3, 4 and 5 are prepared according to Examples 1, 2, 3, 4 and 5, respectively. • 1.2. Strain • (1) Helicobacter pylori strains: standard strains 26695, NSH57, MSD132 and G27 are presented by Dr. Hongkai Bi of Nanjing Medical University; clinical metronidazole drug-resistant strains, clarithromycin drug-resistant strains, levofloxacin drug-resistant strains, levofloxacin and metronidazole drug-resistant strains, clarithromycin and metronidazole drug-resistant strains, levofloxacin and clarithromycin and metronidazole multi drug-resistant strains (HPBS001, HPBS002, HPBS003, and the like) are provided by the Research Center for the Prevention and Treatment of Drug Resistant Microbial Infections of Youjiang Medical University for Nationalities. • (2) Non Helicobacter pylori strains: Staphylococcus aureus, Escherichia coli, Pseudomonas aeruginosa, Acinetobacter baumannii, Klebsiella pneumoniae, Candida albicans, Enterobacter cloacae, Campylobacter jejuni, Bacillus subtilis, Proteus mirabilis, Lactobacillus campylobacter, Stenotrophomonas maltophilia, Morganella morganii, Candida tropicalis, Staphylococcus haemolyticus, Acetobacter, Saccharomyces cerevisiae, Enterobacter hormaechei well is provided by the Research Center for the Prevention and Treatment of Drug Resistant Microbial Infections of Youjiang Medical University for Nationalities. • 1.3 Main culture media and reagents: Columbia culture medium, Brain Heart Infusion Broth, nutrient agar culture medium, nutrient broth culture medium, MH culture medium, Sabouraud culture medium, standard calf serum. • 1.4 Main instruments: three gas incubator, centrifuge, microplate reader, electronic balance, and the like. • 1.5 Consumable materials: EP tube, tip, centrifuge tube, and the like. • 2. […]

[1] = system: Helicobacter pylori G27 strain; assay: Drug resistance test, induction with 1/4 MIC for 24 days
Excerpt: Note: In 6:1:3 group, “>” refers to greater than 46.1+7. 7+23.1. • 2.4 Drug Resistance Test of Prepared 6:1:3 Composition • (1) The drug resistance of […] is detected with Helicobacter pylori G27 strain.

[2] = Helicobacter pylori, read-out: MIC

Row | Compound | MIC (Helicobacter pylori (Hp); [2]) [µg/mL] | MIC (Helicobacter pylori; [2]) [µg/mL] | further results
1 | COc1ccc2cc3[n+](cc2c1OC)CCc1cc2c(cc1-3)OCO2 [Berberine, berberine] | 16 to 32 | 16 | 
2 | Cc1ncc([N+](=O)[O-])n1CCO [metronidazole] |  |  | MIC ([1]; Helicobacter pylori, G27STRAIN, before induction): 2 µg/mL (≈ 11.7 µM); MIC increase after induction ([1]; after 24 days of induction with 1/4 MIC, FIG. 3): 64 times
3 | Cc1coc2c1C(=O)C(=O)c1c-2ccc2c(C)cccc12 [Tanshinone I, tanshinone I] |  |  | MIC (Helicobacter pylori (Hp)): 0.5 to 1 µg/mL; MIC (Helicobacter pylori): Tanshinone I (1 μg/mL)
4 | COc1ccc2c(OC)c3ccoc3nc2c1 [Evolitrine, evolitrine] | 16 to 32 | 32 | 
